Test system: weight increase caused by croton oil
Assay: rat ear test according to Tonelli (croton oil), topical anti-inflammatory activity
Type: in vivo, Wistar rats
Details: 5 hours after treatment

Compound | ED50 [mg/kg]
CCCC(=O)OC1(C(=O)CO)CCC2C3CCC4=CC(=O)CCC4(C)C3C(O)CC21C (stereo not drawn) [Compound 3, Hydrocortisone 17-butyrate] | 0.5
CCCCOc1ccc(CC(=O)NO)cc1 [Compound 1, Bufexamac] | 15
O=C(O)COc1nn(Cc2ccccc2)c2ccccc12 [Compound 2, Bendazac] | 15
COc1ccc(C2CNC(=O)C2)cc1OC1CCCC1 (stereo not drawn) [Compound 4, 4-(3-Cyclopentyloxy-4-methoxyphenyl)-2-pyrrolidone] | 0.6
COc1ccc(C2CNC(=O)C2)cc1OCC(C)C (stereo not drawn) [Compound 6, 4-(3-Isobutoxy-4-nmethoxypheny1)-2-pyrrolidone] | 1.1
COc1ccc(C2CNC(=O)C2)cc1OC1CCOC1 (stereo not drawn) [Compound 5, 4-[4-Methoxy-3-(3-tetrahydrofuryloxy)phenyl]-2-pyrrolidone] | 0.2

From US5998453A, “Oxazolidinone compounds and pharmaceutical preparation containing them” (Schering Aktiengesellschaft, priority 1984, dated 1999)
